Measurements published in US10947188B2, “Small molecule ferroptosis inducers” (THE TRUSTEES OF COLUMBIA UNIVERSITY IN THE CITY OF NEW YORK, priority 2016, dated 2021).

Assays:
HT-1080 = experiment: Modulatory profiling: Alamar Blue viability, lethal compound cotreated with death modulator (EC50, AUC); type: cell-based; parameters: AUC, modulator HT.3MA / AUC, modulator HT.ALLN / AUC HT.ATA / AUC HT.ActD / AUC HT.BHA / AUC HT.BHT / AUC HT.BocD / AUC HT.CHX / AUC HT.Co2+ / AUC HT.DPQ / AUC HT.EGTA / AUC HT.Lmim / AUC HT.NAD+ / AUC HT.Nec-1 / AUC HT.SP600125 / AUC HT.TLCK / AUC HT.U0126: unit not given beside the values; conditions: for AUC HT.ATA: HT-1080, modulator ATA; for AUC HT.ActD: HT-1080, modulator ActD; for AUC HT.BHA: HT-1080, modulator BHA; for AUC HT.BHT: HT-1080, modulator BHT; for AUC HT.BocD: HT-1080, modulator BocD; for AUC HT.CHX: HT-1080, modulator CHX; for AUC HT.Co2+: HT-1080, modulator Co2+; for AUC HT.CspA: HT-1080, modulator CspA; for AUC HT.DPQ: HT-1080, modulator DPQ; for AUC HT.EGTA: HT-1080, modulator EGTA; for AUC HT.Gd3+: HT-1080, modulator Gd3+; for AUC HT.LNAME: HT-1080, modulator LNAME; for AUC HT.Lmim: HT-1080, modulator Lmim; for AUC HT.NAD+: HT-1080, modulator NAD+; for AUC HT.NMMA: HT-1080, modulator NMMA; for HT.atoc (AUC) / HT.bCarotene (AUC) / HT.deferox (AUC) / HT.digoxin (AUC) / HT.trolox (AUC) / HT.zVAD (AUC) / EC50: HT-1080; for HT.atoc (AUC): modulator atoc; for HT.bCarotene (AUC): modulator bCarotene; for HT.deferox (AUC): modulator deferox; for HT.digoxin (AUC): modulator digoxin; for HT.trolox (AUC): modulator trolox; for HT.zVAD (AUC): modulator zVAD; for EC50: Homo sapiens, HT-1080, 48 h, 48 h; for AUC HT.BHA: reference of the scale not given here; for AUC HT.EGTA: reference of the scale not given here
BJeLR = experiment: as above; type: cell-based, human; parameters: AUC, modulator BJ.Gd3+ / AUC, modulator BJ.LNAME / AUC, modulator BJ.Lmin / AUC, modulator BJ.3MA / AUC, modulator BJ.ALLN / AUC, modulator BJ.Boc D / AUC, modulator BJ.CHX / AUC, modulator BJ.Co2+ / AUC, modulator BJ.Nec-1 / AUC, modulator BJ.Pepstatin / AUC, modulator BJ.TLCK / AUC, modulator BJ.atoc / AUC, modulator BJ.trolox / AUC, modulator BJ.zVAD: unit not given beside the values; conditions: for AUC, modulator BJ.3MA / AUC, modulator BJ.ALLN / AUC, modulator BJ.Boc D / AUC, modulator BJ.CHX / AUC, modulator BJ.Co2+ / AUC, modulator BJ.DPQ / AUC, modulator BJ.Gd3+ / AUC, modulator BJ.LNAME / AUC, modulator BJ.Lmin/NAD+ / AUC, modulator BJ.Lmin / AUC, modulator BJ.NAD+ / AUC, modulator BJ.NMMA / AUC, modulator BJ.Nec-1 / AUC, modulator BJ.Pepstatin / AUC, modulator BJ.TLCK: BJeLR cells, modulatory profile value (AUC); for AUC, modulator BJ.3MA: lethal compound cotreated with modulator 3MA; for AUC, modulator BJ.ALLN: lethal compound cotreated with modulator ALLN; for AUC, modulator BJ.Boc D: lethal compound cotreated with modulator Boc D; for AUC, modulator BJ.CHX: lethal compound cotreated with modulator CHX; for AUC, modulator BJ.Co2+: lethal compound cotreated with modulator Co2+; for AUC, modulator BJ.DPQ: lethal compound cotreated with modulator DPQ; for AUC, modulator BJ.Gd3+: lethal compound cotreated with modulator Gd3+; for AUC, modulator BJ.LNAME: lethal compound cotreated with modulator LNAME; for AUC, modulator BJ.Lmin/NAD+: lethal compound cotreated with modulator Lmin/NAD+; for AUC, modulator BJ.Lmin: lethal compound cotreated with modulator Lmin; for AUC, modulator BJ.NAD+: lethal compound cotreated with modulator NAD+; for AUC, modulator BJ.NMMA: lethal compound cotreated with modulator NMMA; for AUC, modulator BJ.Nec-1: lethal compound cotreated with modulator Nec-1; for AUC, modulator BJ.Pepstatin: lethal compound cotreated with modulator Pepstatin; for AUC, modulator BJ.TLCK: lethal compound cotreated with modulator TLCK; for EC50: Homo sapiens, BJeLR, 48 h
[1] = cotreated with antioxidant Trolox
[2] = cotreated with iron-chelator Lmim
Throughout, for AUC, modulator BJ.3MA: reference of the scale not given here.
Throughout, for AUC, modulator BJ.ALLN: reference of the scale not given here.
Throughout, for AUC, modulator BJ.Boc D: reference of the scale not given here.
Throughout, for AUC, modulator BJ.CHX: reference of the scale not given here.
Throughout, for AUC, modulator BJ.Co2+: reference of the scale not given here.
Throughout, for AUC, modulator BJ.DPQ: reference of the scale not given here.
Throughout, for AUC, modulator BJ.Gd3+: reference of the scale not given here.
Throughout, for AUC, modulator BJ.LNAME: reference of the scale not given here.
Throughout, for AUC, modulator BJ.NAD+: reference of the scale not given here.
Throughout, for AUC, modulator BJ.NMMA: reference of the scale not given here.
Throughout, for AUC, modulator BJ.Nec-1: reference of the scale not given here.
Throughout, for AUC, modulator BJ.Pepstatin: reference of the scale not given here.
Throughout, for AUC, modulator BJ.TLCK: reference of the scale not given here.

## COc1c2c(cc3c1C(CC(=O)/C=C/c1ccccc1)[N+](C)(C)CC3)OCO2 (centres unmarked) [CIL77]
HT-1080
  AUC HT.ATA: 0.05492
  AUC HT.ActD: 0.0959
  AUC HT.BHA: −0.008714
  AUC HT.BHT: −0.07998
  AUC HT.BocD: −0.02828
  AUC HT.CHX: 0.1436
  AUC HT.Co2+: 0.1261
  AUC HT.CspA: −0.05791
  AUC HT.DPQ: 0.003496
  AUC HT.EGTA: −0.00345
  AUC HT.Gd3+: −0.0368
  AUC HT.LNAME: 0.01693
  AUC HT.Lmim: 0.02573
  AUC HT.NAD+: 0.003357
  AUC HT.NMMA: −0.01509
  HT.atoc (AUC): 0.02076
  HT.bCarotene (AUC): −0.005078
  HT.deferox (AUC): 0.09145
  HT.digoxin (AUC): −0.01405
  HT.trolox (AUC): −0.01064
  HT.zVAD (AUC): 0.02554
BJeLR
  AUC, modulator BJ.3MA: −0.05728
  AUC, modulator BJ.ALLN: 0.01826
  AUC, modulator BJ.Boc D: 0.05622
  AUC, modulator BJ.CHX: 0.2548
  AUC, modulator BJ.Co2+: 0.1866
  AUC, modulator BJ.DPQ: −0.009273
  AUC, modulator BJ.Gd3+: −0.007344
  AUC, modulator BJ.LNAME: 0.03349
  AUC, modulator BJ.Lmin/NAD+: 0.04982
  AUC, modulator BJ.Lmin: −0.04848
  AUC, modulator BJ.NAD+: −0.05677
  AUC, modulator BJ.NMMA: −0.02771
  AUC, modulator BJ.Nec-1: −0.06543
  AUC, modulator BJ.Pepstatin: 0.07338
  AUC, modulator BJ.TLCK: −0.05565

## COC(=O)[C@@H]1Cc2c([nH]c3ccccc23)C(C)(C)N1C(=O)CCl [CIL79]
HT-1080
  AUC HT.ATA: −0.05302
  AUC HT.ActD: −0.04021
  AUC HT.BHA: 0.3909
  AUC HT.BHT: 0.3644
  AUC HT.BocD: −0.002385
  AUC HT.CHX: 0.02794
  AUC HT.Co2+: 0.2948
  AUC HT.CspA: −0.03389
  AUC HT.DPQ: 0.04764
  AUC HT.EGTA: 0.02262
  AUC HT.Gd3+: −0.02579
  AUC HT.LNAME: 0.01224
  AUC HT.Lmim: 0.4052
  AUC HT.NAD+: −0.004292
  AUC HT.NMMA: 0.003194
  HT.atoc (AUC): 0.4488
  HT.bCarotene (AUC): 0.005675
  HT.deferox (AUC): 0.5494
  HT.digoxin (AUC): −0.0705
  HT.trolox (AUC): 0.4225
  HT.zVAD (AUC): 0.003682
HT-1080; HT-1080 and BJeLR
  effect of ferroptosis inhibitors (iron chelators and lipophilic antioxidants) on lethality in modulatory profiling: suppression by canonical ferroptosis inhibitors
HT-1080; DMSO
  EC50: 0.271 µM
HT-1080; cotreated with MEK inh U0126
  EC50: 14.3 µM
HT-1080; cotreated with antioxidant Atoc
  EC50: 11.7 µM
HT-1080; cotreated with antioxidant BHA
  EC50: 10.1 µM
HT-1080; cotreated with antioxidant BHT
  EC50: 6.3 µM
HT-1080; [1]
  EC50: 10.2 µM
HT-1080; cotreated with iron-chelator Deferoxamine
  EC50: 32.4 µM
HT-1080; [2]
  EC50: 12 µM
BJeLR
  AUC, modulator BJ.3MA: 0.0798
  AUC, modulator BJ.ALLN: 0.02717
  AUC, modulator BJ.Boc D: 0.02938
  AUC, modulator BJ.CHX: −0.04651
  AUC, modulator BJ.Co2+: 0.1763
  AUC, modulator BJ.DPQ: 0.003967
  AUC, modulator BJ.Gd3+: 0.00956
  AUC, modulator BJ.LNAME: 0.01544
  AUC, modulator BJ.Lmin/NAD+: 0.2136
  AUC, modulator BJ.Lmin: 0.2049
  AUC, modulator BJ.NAD+: −0.00637
  AUC, modulator BJ.NMMA: −0.008594
  AUC, modulator BJ.Nec-1: 0.2258
  AUC, modulator BJ.Pepstatin: 0.04063
  AUC, modulator BJ.TLCK: 0.1984
BJeLR; DMSO
  EC50: 0.157 µM
BJeLR; cotreated with Lmim_NAD
  EC50: 0.566 µM
BJeLR; [1]
  EC50: 8.32 µM
BJeLR; cotreated with antioxidant atoc
  EC50: 7.93 µM
BJeLR; [2]
  EC50: 0.667 µM

## C[C@H]1CCC[C@]2(C)C[C@H]3OC(=O)[C@H](CN4CCCC4)[C@H]3C=C12 [CIL80]
HT-1080
  AUC HT.ATA: 0.05781
  AUC HT.ActD: 0.08002
  AUC HT.BHA: 0.009452
  AUC HT.BHT: −0.01971
  AUC HT.BocD: −0.02337
  AUC HT.CHX: 0.09741
  AUC HT.Co2+: 0.112
  AUC HT.CspA: 0.01161
  AUC HT.DPQ: −0.01717
  AUC HT.EGTA: 0.0199
  AUC HT.Gd3+: −0.03226
  AUC HT.LNAME: 0.01972
  AUC HT.Lmim: 0.05449
  AUC HT.NAD+: 0.01251
  AUC HT.NMMA: −0.01256
  HT.atoc (AUC): 0.004877
  HT.bCarotene (AUC): 0.003874
  HT.deferox (AUC): 0.1672
  HT.digoxin (AUC): 0.06493
  HT.trolox (AUC): −0.01954
  HT.zVAD (AUC): 0.03135
BJeLR
  AUC, modulator BJ.3MA: 0.00654
  AUC, modulator BJ.ALLN: −0.004769
  AUC, modulator BJ.Boc D: 0.008783
  AUC, modulator BJ.CHX: 0.1351
  AUC, modulator BJ.Co2+: 0.09506
  AUC, modulator BJ.DPQ: −0.03368
  AUC, modulator BJ.Gd3+: 0.01802
  AUC, modulator BJ.LNAME: 0.02901
  AUC, modulator BJ.Lmin/NAD+: 0.09271
  AUC, modulator BJ.Lmin: 0.01639
  AUC, modulator BJ.NAD+: −0.008515
  AUC, modulator BJ.NMMA: −3.885E−05
  AUC, modulator BJ.Nec-1: −0.01593
  AUC, modulator BJ.Pepstatin: 0.03142
  AUC, modulator BJ.TLCK: −0.006094
